For the assay, the system named is castrated male adolescent rats. The experiment in a line: Anabolic activity in castrated rats: organ weight. As to conditions: castrated animals, result in words. The format is in vivo, rats of Swiss Wistar strain. As for the experimental part: Male Adolescent rats of Swiss Wistar strain of body weight 55 gms are chosen for this experiment and are castrated. The castrated groups are divided into 2 groups. • 1. Control group castrated animals n=6 • 2. Drug treated castrated animals treated with test compound at 25 mg/kg n=6
Both the groups are fed ad libitum food and water and observed for 28 days. Their serum at the beginning of the experiment and at the end of the experiment are drawn and checked for Total testosterone, and free testosterone. The animals are sacrificed at the end of the experiment and seminal vesicle; ventral Prostate and Levator Ani are removed and weighed. These organ weights are compound with the control animals.

As for `CC(COC1OC(CO)C(O)C(O)C1O)C(C)CC1(O)CC2CC3C4CC=C5CC(OC6OC(CO)C(O)C(O)C6OC6OC(C)C(O)C(O)C6O)CCC5(C)C4CCC3(C)C2C1C` (stereo not shown) [saponin of structural formula I], the anabolic activity entry is “does not showed any activity”.
